Laboratory results taken from a melting point compilation (Tetko et al.; mined from patent text by program, amines drawn as free bases though some values may be those of a salt).

Work on Cn1ncc(C(=O)N2CCC2)c1C(=O)Nc1ccn2nc(-c3ccccc3)nc2c1 yielded a melting point of 243 to 245 °C.
CCOC(=O)C1=CC(NC(=NC(=O)OC(C)(C)C)NC(=O)OC(C)(C)C)C(NC(C)=O)C(C(O)C2COC(C)(C)O2)O1 (configuration not stated) gave a melting point of 118 to 120 °C.
Cc1nnc2ccc(-c3cccc(N)c3)nn12 showed a melting point of 193 °C.
COc1ccc2ccc(N3C(=O)c4ccccc4C3CC(=O)CCC(C)C)nc2n1 (configuration not stated) gave a melting point of 150 °C.
With O=c1oc(-c2cccc(Oc3ccccc3)c2)cc(O)c1SCCc1ccccc1 the melting point was 114 to 115 °C.
Work on ON=C1CCc2c([nH]c3ccccc23)C1 yielded a melting point of 196 °C.
Molecule CC12CCC3C(CCC4CC(F)CCC43C)C1CCC2=O (configuration not stated) has a melting point of 126 to 127 °C.
In the case of Cc1c(C(=O)c2cccc(O)c2)sc(N)c1C(=O)OC(C)(C)C, the melting point is reported as 169 to 172 °C.
Work on CSc1ccc(C(CC2CCCO2)C(=O)O)cc1Cl (configuration not stated) yielded a melting point of 93 to 96 °C.
For CC(C)(C)OC(=O)N[C@H](Cc1c[nH]c2ccccc12)C(N)=O, the melting point was 142 to 143 °C.
Work on CCC(Oc1cccc(C(F)(F)F)c1Cl)C1=NCCN1 (configuration not stated) yielded a melting point of 102 to 103 °C.
In the case of Oc1ccc(O)c2nccnc12, the melting point is reported as 234 to 236 °C.
Work on O=C1C=CC(O)(c2cc3ccccc3n2S(=O)(=O)c2ccccc2)c2ccccc21 (configuration not stated) yielded a melting point of 175 to 177 °C.
Work on CN(C)CCc1ccc(OCCCN2C(=O)c3ccccc3C2=O)cc1 yielded a melting point of 81 to 82 °C.
Work on CC(C(=O)O)c1ccc2c(c1)CCc1ccccc1C2=O (configuration not stated) yielded a melting point of 122 °C.
Work on CC(C)c1cccc(N2CCN(c3cccc(C(=O)O)c3)C2=O)c1 yielded a melting point of 189 to 190 °C.
Cn1ncc(C(=O)N2CCC2)c1C(=O)Nc1ccn2nc(-c3cccnc3)nc2c1 showed a melting point of 253 to 254 °C.
Work on O=C(O)c1cc(Cl)cc(Cl)c1NS(=O)(=O)c1ccc(Cl)cc1 yielded a melting point of 273 to 276 °C.
CCOc1ccc2c(c1)C(C)(c1cc(NC(=O)c3cccnc3)ccc1Cl)C(=O)N2S(=O)(=O)c1ccc(C(=O)NC(C)(C)C)cc1OC (configuration not stated) showed a melting point of 192 °C.
In the case of NNc1nc(Cl)nc2cccc(F)c12, the melting point is reported as over 280 °C.
COc1ccc(-c2cc(=O)[nH]c(=O)[nH]2)cc1OC gave a melting point of over 300 °C.
Molecule CSc1cc(-c2ccccc2)nc(-c2cccc(C(F)(F)F)c2)c1 has a melting point of 79.1 °C.
Work on C1CCCCCC(=NOC(=NC2CCCCC2)NC2CCCCC2)CCCCC1 yielded a melting point of 108 to 111 °C.
In the case of Nc1ccc(NC(=O)CC(=O)c2ccccc2)cc1[N+](=O)[O-], the melting point is reported as 182 to 183 °C.
Work on CCOC(=O)C1CN(C(=O)c2cc(OC)c(OC)c(OC)c2)CCN1C(=O)C1=Cc2cc(OC)c(OC)cc2CCC1 (configuration not stated) yielded a melting point of 108 to 110 °C.
Molecule O=C(c1ccccc1)c1ccc(Nc2nc(Nc3ccc(C(=O)c4ccccc4)cc3)nc(-c3cccn3Cc3ccccc3)n2)cc1 has a melting point of 115 to 118 °C.
With Nc1nc(-c2cc(Cl)nc(Cl)c2)cs1 the melting point was 239 to 247 °C.
Work on Cc1c(C)c2c(c(C)c1N)CC(C)(CN1CCC(O)(c3ccc(Cl)cc3)CC1)O2 (configuration not stated) yielded a melting point of 118 to 120 °C.
With CCCC[C@H](NC(=O)[C@H](CCCCNC(=O)OC(C)(C)C)NC(=O)OCc1ccccc1)C(=O)CSCc1ccco1 the melting point was 60 to 63 °C.
In the case of O=C(O)C=CCCCCCc1cccc2cncn12, the melting point is reported as 110 to 111 °C.
For O=C1N(Cc2cc(-c3ccc(Cl)cc3)oc2C(F)(F)F)c2ccccc2C12COc1cc3c(cc12)OCO3 (configuration not stated), the melting point was 114 to 116 °C.
O=C(C(=O)c1ccc([N+](=O)[O-])cc1)c1ccc([N+](=O)[O-])cc1 showed a melting point of 211 to 212 °C.
Molecule CCOP(=O)(CCNC1CCN(S(=O)(=O)c2ccc(Nc3nccc(Nc4ccc(F)cc4)n3)cc2)CC1)OCC has a melting point of 195 °C.
Work on CC(C)=CC(O)C(Cl)(Cl)Cl (configuration not stated) yielded a melting point of 83 °C.
In the case of O=C(O)C(=O)Nc1ccc(Oc2ccc(NC(=O)C(=O)O)cc2)cc1, the melting point is reported as over 320 °C.
In the case of CC(=O)N1c2ccc(F)cc2CC1C(N)=O (configuration not stated), the melting point is reported as 232 to 235 °C.
Molecule NC1CCn2c1nc1cc(NC(=O)c3cc4cc(F)ccc4n3Cc3cccc(F)c3)cnc12 (configuration not stated) has a melting point of 218 to 220 °C.
Molecule CC(C)Cc1ccc(C(CC(=O)O)C(=O)O)s1 (configuration not stated) has a melting point of 106 to 108 °C.
Work on C=CCOc1cc([N+](=O)[O-])ccc1OCC1CO1 (configuration not stated) yielded a melting point of 64 °C.
In the case of CCCSc1sc(C(=O)OCC)c2c1C(=O)C(NC(=O)CC)CC2 (configuration not stated), the melting point is reported as 191 to 192 °C.
O=C1NC(=O)C(Nc2ccc(CCNC[C@H](O)COc3ccc(Oc4ccccc4)cc3)cc2)S1 (some centres not stated) showed a melting point of 72 to 74 °C.
In the case of COc1ccc(S(=O)(=O)N2C(=O)C(c3ccccc3OC)(N3c4ccccc4C[C@H]3C(=O)N(C)C)c3cc(Cl)ccc32)c(OC)c1 (some centres not stated), the melting point is reported as 167 °C.
O=C(NC(Cc1ccccc1)C(=O)O)c1ccc2cc(Oc3ccccc3)ccc2c1 (configuration not stated) showed a melting point of 179 to 180 °C.
CN(C)c1cccc2c(S(=O)(=O)Nc3cnc(Br)c(Cl)n3)cccc12 showed a melting point of 180 to 182 °C.
For O=C(CN1CCN(c2ccccc2)CC1)N1CCC(C(=O)N2CCC2)(c2cccc(C(F)(F)F)c2)CC1, the melting point was 147 to 149 °C.
In the case of CCC12CCC(=O)C=C1c1c(cc(OCC(=O)OCC(O)CO)c(Cl)c1Cl)C2 (configuration not stated), the melting point is reported as 135 to 138 °C.
Work on CN1C(=O)N(c2cc(Cl)cc(Cl)c2)C(=O)[C@]12CN(Cc1ccccc1)C[C@H]2c1ccc(C#N)cc1 (relative stereo) yielded a melting point of 164 °C.
Cc1c(Cl)ccc2cc(C(F)(F)F)c(C(F)(F)F)nc12 showed a melting point of 70 to 73 °C.
Molecule CCCCC(CC)n1c(CC)nc2c1C(=O)N(C)CN2c1ccc(Cl)cc1Cl (configuration not stated) has a melting point of 94 to 95 °C.
CCC(C(=O)N(CC)CC)n1cc(C)c(-c2ccccc2)n1 (configuration not stated) showed a melting point of 80 to 82 °C.
Work on Cn1cc(C2=C(c3ccncc3)C(=O)OC2=O)c2ccccc21 yielded a melting point of 217 to 219 °C.
COCCNc1nccc(Oc2ccc(NC(=O)c3cc(F)cc(N4CCCCC4)c3)c3ccccc23)n1 gave a melting point of 87 to 88 °C.
In the case of Cc1ccc(Cl)cc1N1CN(C(C)(C)C)CN(C)C1=S, the melting point is reported as 130 to 132 °C.
Molecule CC(C)(C)c1cc(C=C(C#N)c2ccccn2)cc(C(C)(C)C)c1 has a melting point of 90 to 93 °C.
FCc1cc(Cl)n2nc(SCc3ccccc3)nc2n1 gave a melting point of 81 to 86 °C.
CN(C(CCN1C(=O)c2ccccc2C1=O)C(=O)O)S(=O)(=O)c1ccc(Oc2ccc(Cl)cc2)cc1 (configuration not stated) gave a melting point of 166 to 167 °C.
For Cc1cccc(N(CC(=O)OC(C)(C)C)C(=O)CN2C(=O)c3ccccc3C2=O)c1, the melting point was 166 °C.
Work on O=C(O)[C@H]1CN(c2ccc(C3=CCSCC3)c(F)c2)C(=O)O1 yielded a melting point of 106 to 110 °C.
For CCOC(=O)C1=C(C)NC(C)=C(C(=O)OCC)C1c1ccccc1[N+](=O)[O-], the melting point was 120 to 121 °C.
Oc1ccnc2ccc3nc[nH]c3c12 gave a melting point of 366 to 368 °C.
In the case of CCC(C)COc1ccc(-c2ccc(O)cc2)cc1 (configuration not stated), the melting point is reported as 80.5 °C.
With COc1ccc(S(=O)(=O)N2c3ccccc3-c3ccccc3C2C(C)(C)C)cc1 (configuration not stated) the melting point was 156 to 158 °C.
In the case of Nc1sc2c(c1C(=O)c1ccccc1)CCN(C(=O)OCc1ccccc1)C2, the melting point is reported as 138 to 140 °C.
With CC1CC=CCN1Cc1ccc(O)cc1 (configuration not stated) the melting point was 109 to 112 °C.
Work on CC(CO)NC(=O)CCCCC1CCSS1 (configuration not stated) yielded a melting point of 52 to 56 °C.
Nc1ccc(C2=CCOCC2)c(F)c1 gave a melting point of 86 to 88 °C.
Molecule COC(=O)C1=C(C)Nc2nccn2C1c1cccc(C2(C)OCCO2)c1 (configuration not stated) has a melting point of 199 to 201 °C.
O=C1c2cccc(Sc3ccccc3)c2C(=O)c2cccc(Nc3ccc([N+](=O)[O-])cc3)c21 showed a melting point of 242 to 244 °C.
With COc1cc(C=CC(=O)CCc2ccco2)ccc1O the melting point was 82 to 84 °C.
O=C(NN=Cc1ccc(Cl)cc1)c1[nH]c2ccccc2c1C(=O)Nc1ccccc1 showed a melting point of over 260 °C.
With O=C(OC[C@H]1CC(=O)[C@@H]1COC(=O)c1ccccc1)c1ccccc1 the melting point was 93 to 94 °C.
With CNS(=O)(=O)c1ccc(Oc2ccncc2)cc1 the melting point was 125 to 127 °C.
In the case of COc1ccc(Nc2nc(NC3CCCCCC3)nc(Oc3ccc(C#CC(C)(C)O)cc3)n2)cc1Cl, the melting point is reported as 132 to 134 °C.
Molecule CCOCc1nc2c(N)nc3ccccc3c2n1CCNC(=O)CCCCC1SCC2NC(=O)NC21 (configuration not stated) has a melting point of 171 to 175 °C.
Molecule CC(COc1ccc(-n2cncn2)cc1)(NS(=O)(=O)Cc1ccccc1)C(=O)O (configuration not stated) has a melting point of 148 to 151 °C.
For CC(C)(C)NS(=O)(=O)c1ccccc1, the melting point was 77 to 78 °C.
O=C(O)c1ccc2cc(OCCCCCCc3cccc(OCc4ccccc4)c3OCc3ccccc3)ccc2c1 gave a melting point of 66 to 68 °C.
OC(COc1ccc(Cl)cc1)CSCc1ccc(Cl)cc1 (configuration not stated) gave a melting point of 107 to 108 °C.
In the case of OCCN1CCN(CC2CNCCO2)CC1 (configuration not stated), the melting point is reported as 73 to 75.5 °C.
Cn1nc(Oc2ccc(N)c(N)c2)cc1C(F)(F)F gave a melting point of 109 to 111 °C.
In the case of CCOCCOc1ccc(-c2nc(-c3ccc(OC)cc3)nc(-c3ccc(OCCOCC)cc3O)n2)c(O)c1, the melting point is reported as 155 to 158 °C.
Work on OCC1CCc2cc(OCc3ccccc3)ccc2O1 (racemic) yielded a melting point of 80 to 82 °C.
For O=C1CC2O/C(=C/C3(C(=O)OCc4ccccc4)C=CC=CC3)CN12 (configuration not stated), the melting point was 120 to 121 °C.
For COc1ccc(-c2cccc(C3=CCC(OC(Cc4ccccc4)C(=O)O)(c4c(Cc5ccccc5)oc5ccccc45)C=C3)c2)cc1 (configuration not stated), the melting point was 73 to 75 °C.
For COc1cc(N2CCOCC2)ccc1Nc1nc(Nc2ccc3c(c2)CCC(=O)CC3)ncc1Cl, the melting point was 212 to 215 °C.
Molecule O=[N+]([O-])c1cc(Br)cc(OCCF)c1 has a melting point of 59 to 61 °C.
For CCCCOc1cc(C(=O)O)n(Cc2ccc(Cl)cc2Cl)n1, the melting point was 154 to 155 °C.
In the case of O=C(NN=C(c1ccc(Cl)cc1)c1ccc(OC(F)(F)C(Cl)Cl)cc1)c1ccccc1, the melting point is reported as 121 to 122 °C.
CC(C)C(=O)CCC(C)C1CCC2C3CC(O)C4CC(O)CCC4(C)C3CCC12C (configuration not stated) gave a melting point of 180 to 181 °C.
With NS(=O)(=O)c1cccc(C2CC2)c1 the melting point was 71.5 to 72.9 °C.
Molecule O=c1n(C(c2ccccc2)(c2ccccc2)c2ccccc2)nc2ccc(Cl)nn12 has a melting point of 246 to 247 °C.
CC12CCC3C4CCC(OCc5ccccc5)CC4CCC3C1C=CC2=O (configuration not stated) showed a melting point of 119 to 120 °C.
In the case of CC(=Cc1cc(Cl)ccc1O)[N+](=O)[O-], the melting point is reported as 104 to 106 °C.
Work on N#CSc1ccc(N)c([N+](=O)[O-])c1 yielded a melting point of 110 to 112 °C.
For NC(=O)C(=O)c1ccccc1CCl, the melting point was 105 to 107 °C.
Work on CCCCCCCCCCCCOCC1CN(c2cc3c(cc2F)c(=O)c(C(=O)O)cn3CC)CCN1 (configuration not stated) yielded a melting point of 125 to 127 °C.
O=C1Nc2ccc(I)cc2C1=NNC(=O)C1CCN(C(=O)c2ccccc2)CC1 showed a melting point of 160 °C.
